In the NIST ThermoML archive (doi:10.1021/je100256w):
± gives the expanded uncertainty stated by the source.

Assay: cn = amount concentration of the nth substance listed, in mol/dm3
Settings: 101 kPa, Liquid, Dip Cell

CCCCCCCCCCCCCCCC[N+](C)(C)CCCC[N+](C)(C)CCCCCCCCCCCCCCCC.[Br-].[Br-] + O
electrical conductivity [S/m]
Settings	298 K	303 K	308 K	313 K
c1 = 3.3e-06	6.6e-05	6.6e-05	6.7e-05	6.8e-05
c1 = 6.6e-06	0.000121	0.000134	0.00015	0.00016
c1 = 9.9e-06	0.000187	0.000196	0.000207	0.000227
c1 = 1.32e-05	0.000256	0.000274	0.00029	0.000301
c1 = 1.64e-05	0.000326	0.000336	0.000346	0.000372
c1 = 1.96e-05	0.000397	0.000407	0.000429	0.000449
c1 = 2.28e-05	0.000463	0.000486	0.000507	0.000527
c1 = 2.6e-05	0.000539	0.000539	0.000559	0.000575
c1 = 2.91e-05	0.000615	0.000626	0.000642	0.000666
c1 = 3.23e-05	0.00067	0.000679	0.000695	0.000715
c1 = 3.54e-05	0.000736	0.000746	0.000766	0.000787
c1 = 3.85e-05	0.000789	0.000799	0.000799	0.000851
c1 = 4.15e-05	0.000856	0.000866	0.000889	0.000901
c1 = 4.46e-05	0.000916	0.000926	0.000946	0.000966
c1 = 4.76e-05	0.000962	0.000985	0.001	0.00103
c1 = 5.06e-05	0.001	0.00102	0.00105	0.00108
c1 = 5.36e-05	0.00105	0.00106	0.00108	0.0011
c1 = 5.66e-05	0.0011	0.00112	0.00113	0.00115
c1 = 5.96e-05	0.00116	0.00118	0.0012	0.00122
c1 = 6.25e-05	0.00121	0.00123	0.00125	0.00127
c1 = 6.54e-05	0.00126	0.00126	0.00128	0.00133
c1 = 6.83e-05	0.0013	0.00131	0.00133	0.00137
c1 = 7.12e-05	0.00134	0.00137	0.00138	0.0014
c1 = 7.41e-05	0.0014	–	–	–

O=C([O-])c1ccccc1.[Na+] [sodium benzoate] + O
electrical conductivity [S/m]
Settings	298 K	303 K	308 K	313 K
c1 = 1.98e-05	1.95e-05 ± 6.8e-07	1.613e-05 ± 9e-08	1.97e-05 ± 6.1e-07	2.22e-05 ± 5.1e-07
c1 = 3.92e-05	3.33e-05 ± 3.8e-07	3.53e-05 ± 3.8e-07	3.66e-05 ± 7.1e-07	4.21e-05 ± 1e-06
c1 = 5.82e-05	4.76e-05 ± 9.4e-07	5.11e-05 ± 7.7e-07	5.48e-05 ± 9.2e-07	5.98e-05 ± 1.1e-06
c1 = 7.69e-05	5.86e-05 ± 1.2e-06	6.55e-05 ± 9.7e-07	6.76e-05 ± 1.3e-06	7.77e-05 ± 1.9e-06
c1 = 9.52e-05	7.22e-05 ± 1.8e-06	7.97e-05 ± 1.6e-06	8.72e-05 ± 1.4e-06	9.3e-05 ± 1.3e-06
c1 = 0.0001221	8.72e-05 ± 2.2e-06	9.91e-05 ± 2.1e-06	0.000107 ± 1.8e-06	0.000116 ± 1.7e-06
c1 = 0.0001567	0.00011 ± 2.5e-06	0.000121 ± 2.4e-06	0.000133 ± 2.3e-06	0.000143 ± 2.1e-06
c1 = 0.00019	0.0001285 ± 7.8e-07	0.00013 ± 2.9e-06	0.000157 ± 3.8e-06	0.000167 ± 2.2e-06
c1 = 0.0002222	0.000145 ± 3.4e-06	0.000161 ± 3.4e-06	0.000178 ± 3e-06	0.00019 ± 2.1e-06
c1 = 0.0002533	0.000161 ± 2.9e-06	0.000175 ± 3.8e-06	0.000197 ± 3.1e-06	0.0002038 ± 1.7e-06
c1 = 0.0002906	0.00018 ± 3.9e-06	0.000199 ± 2.8e-06	0.000206 ± 2.4e-06	0.000221 ± 3.6e-06
c1 = 0.0003264	0.000198 ± 2.3e-06	0.000203 ± 2.8e-06	0.000224 ± 4.2e-06	0.000243 ± 3.8e-06
c1 = 0.0003607	0.000199 ± 2.8e-06	0.000217 ± 4.6e-06	0.000243 ± 4.7e-06	0.000262 ± 4.2e-06
c1 = 0.0004	0.000216 ± 4e-06	0.000235 ± 4.7e-06	0.000261 ± 5.3e-06	0.000285 ± 5e-06
c1 = 0.0004375	0.000231 ± 4.9e-06	0.000254 ± 5.4e-06	0.000284 ± 5.5e-06	0.000307 ± 4.9e-06
c1 = 0.0004791	0.000245 ± 5e-06	0.000271 ± 6.1e-06	0.000304 ± 6.2e-06	0.000332 ± 5.5e-06
c1 = 0.000524	0.000266 ± 4.7e-06	0.000291 ± 6.2e-06	0.000326 ± 6.6e-06	0.000354 ± 5.9e-06
c1 = 0.0005663	0.000293 ± 4.6e-06	0.000307 ± 4.8e-06	0.000338 ± 7e-06	0.000375 ± 7.3e-06
c1 = 0.0006063	0.000297 ± 4.9e-06	0.000324 ± 6.7e-06	0.000362 ± 6.9e-06	0.00039 ± 6.2e-06
c1 = 0.0006532	0.000314 ± 6.2e-06	0.000341 ± 7e-06	0.000381 ± 7.3e-06	0.000412 ± 6.6e-06
c1 = 0.0007055	0.000326 ± 6.3e-06	0.00036 ± 7e-06	0.000393 ± 8.2e-06	0.000439 ± 9.2e-06
c1 = 0.0007616	0.000349 ± 6.6e-06	0.000379 ± 8.1e-06	0.000428 ± 8.6e-06	0.000462 ± 7.5e-06
c1 = 0.0008131	0.000366 ± 6.8e-06	0.000398 ± 8.3e-06	0.000446 ± 9.2e-06	0.000486 ± 8.2e-06
c1 = 0.0008669	0.000381 ± 6.8e-06	0.000414 ± 8.5e-06	0.000463 ± 9.6e-06	0.000507 ± 9e-06
c1 = 0.0009218	0.000398 ± 7.2e-06	0.000432 ± 8.8e-06	0.000483 ± 9.8e-06	0.000526 ± 9.2e-06
c1 = 0.000977	0.000412 ± 6.2e-06	0.000443 ± 8.5e-06	0.000493 ± 1.1e-05	0.000547 ± 1.1e-05
c1 = 0.001027	0.000431 ± 5.6e-06	0.000456 ± 8.7e-06	0.000514 ± 1.1e-05	0.000563 ± 1e-05
